Assay: Unbound fraction
Assay type: in vitro ADME

Work on `CN1CCN(Cc2ccc(NC(=O)c3[nH]ncc3Nc3ncnc4[nH]ccc34)cc2)CC1` [FN-1501] yielded an Unbound fraction of 30%.
